From patent US20040219191A1, “Use of a dopamine agonist with a short half-life for treating illnesses which can be treated by dopaminergic means” (priority 2000, published 2004)

Assay: Water solubility
Conditions: lisuride or a salt thereof

## CCN(CC)C(=O)N[C@H]1C=C2c3cccc4[nH]cc(c34)C[C@H]2N(C)C1 [lisuride, 3-(9,10-didehydro-6-methyl-8α-ergolinyl)-1,1-diethyl urea]
  water solubility: good water solubility
